Where a SMILES comes first, the peptide text is derived from it. Bridges are numbered along the chain shown (N, C = ends). [ ]: non-standard residue; d: D form. The star is where a group is joined. ξ: configuration not given here. Lauroyl = CCCCCCCCCCCC(=O)*; Octanoyl = CCCCCCCC(=O)*; ξLac = CC(O)C(=O)O
Key:
rat ear model = assay: Rat ear model, maintenance of vasoconstriction (paleness of ears) after subcutaneous injection; assay type: in vivo; conditions: for loss of paleness after: subcutaneous injection, ears examined after 6 and 24 h
Method: Using a rat ear model, a vasopressin analog with metal binding moiety of the present invention, His6Ter (“His6” disclosed as SEQ ID NO: 52), was evaluated for it ability to maintain vasoconstriction for an extended period of time. The analog was formulated at a 2% load in polymeric carrier containing 40PLPEG537-Zn-chelate. The peptide analog-polymeric complex was injected subcutaneously into the back of one set of rats, while terlipressin alone was also injected similarly in another set of rats. The ears were examined at baseline and at intervals up to 48 h.
Using the same model, the effects of delayed release of biologically-active lysine vasopressin from the peptide analog His6Ter (“His6” disclosed as SEQ ID NO: 52), with or without complexing in polymeric carrier, was tested. In the experiment, terlipressin was conjugated with a his tag metal binding moiety to result in the His6Ter peptide analog (“His6” disclosed as SEQ ID NO: 52). A portion of the His6Ter analog (“His6” disclosed as SEQ ID NO: 52) was formulated at 2% loading in 40PLPEG537-Zn-chelate. The three test materials were injected subcutaneously into groups of rats and the ears were examined after 6 and 24 h.

[1] = Solubility in water of the synthesized peptide; assay type: physicochemical; conditions: in words
[2] = tested on: human umbilical chord artery endothelial cells (HUAEC); assay: Ca-influx after vasopressin analog stimulation of HUAEC, samples pre-incubated in human serum; assay type: cell-based; set-up: key to Activity of Various Vasopressin Analogs, 0 h / Activity of Various Vasopressin Analogs, 1 h / Activity of Various Vasopressin Analogs, 2 h / Activity of Various Vasopressin Analogs, 4 h: “−” for no detectable activity; “+” to “+++” for slight to high activity; “+” to “+++” for slight to high activity; “+” to “+++” for slight to high activity; conditions: for Activity of Various Vasopressin Analogs, 0 h: 0 h pre-incubation in pooled human serum at 37° C. (serum present); for Activity of Various Vasopressin Analogs, 0 h / Activity of Various Vasopressin Analogs, 1 h / Activity of Various Vasopressin Analogs, 2 h / Activity of Various Vasopressin Analogs, 4 h: Ca-influx in HUAEC, 50 nM per well; for Activity of Various Vasopressin Analogs, 1 h: 1 h pre-incubation in pooled human serum at 37° C.; for Activity of Various Vasopressin Analogs, 2 h: 2 h pre-incubation in pooled human serum at 37° C.; for Activity of Various Vasopressin Analogs, 4 h: 4 h pre-incubation in pooled human serum at 37° C.; for course of activity on incubation in human serum: in words
Source text: Ca-influx after vasopressin analog stimulation of human umbilical chord artery endothelial cells (HUAEC) was used to test the biological activity of the various vasopressin analogs. The material used were: 75 cm^2 tissue culture flasks, BD Bioscience, Bedford Mass. (catalogue number 137787) with 0.2 μm vented blue plug seal caps (catalogue number 353136); human umbilical artery endothelial cells (HUAEC), Lonza, Walkersville, Md. (catalogue number CC-2520); EGM-2 fully supplement medium, Lonza, Walkersville, Md. (catalogue number CC-3162); Fura-2 AM, Invitrogen/Molecular Probes, Carlsbad, Calif. (catalogue number F-1221) (Fura-2 AM is a high affinity, intracellular calcium indicator that is ratiometric and UV light-excitable; the acetoxymethyl (AM) ester form is useful for noninvasive intracellular loading as it is cell permeable. Once inside the cell the ester is clipped which renders the Fura-2 molecule cell impermeable and therefore trapped inside.); terlipressin derivatives custom made by Anaspec, San Jose Calif., according to inventors specifications; pooled human serum, Sigma, St. Louis, Mo. (catalogue number H4522); phosphate buffered saline (PBS), Fisher Scientific, Fair Lawn, N.J. (catalogue number BP399-500); trypsin-EDTA solution, 0.25%, Invitrogen/Gibco, Carlsbad, Calif. (catalogue number 25200-072); heat inactivated fetal bovine serum (FBS), Invitrogen/Gibco, Carlsbad, Calif. (catalogue number 10438-026); black polystyrene 96 well flat-bottom assay plates, Corning Inc., Corning, N.Y. (catalogue number 3916); Chameleon plate multilabel detection reader, Hidex, Turku, Finland, distributed by Bioscan, Washington, D.C.; dimethyl sulfoxide (DMSO), Fisher Scientific, Fair Lawn, N.J. (catalogue number D-136-1).
The methods used for tissue or cell culture are as follows: a vial of HUAEC (>0.5×10^6 cells) was thawed and seeded in two 75 cm^2 flasks with 15 ml EGM-2 medium each. Cells were grown over night and medium was changed. Media in the flasks were changed on a Monday, Wednesday, Friday schedule. Cells were split at approximately 80% confluency (using trypsin). Media were removed and the flasks were washed with 10 ml 1×PBS. The PBS was removed, 1.5 ml trypsin-EDTA solution was added and incubated for 5 min at 37° C. Three ml of FBS added and the cells were counted. The cells were centrifuged at 200×G for 5 min, resuspended in EGM-2 medium and distributed into new 75 cm2 flasks @ 3000-5000 cells per cm2.
To prepare for the Ca2+-influx assay, cells were distributed into one black 96 well plate @ 10^5 cells/well. Cells were allowed to adhere overnight and the medium was then removed. Fifty μg Fura-2 was dissolved in 50 μl DMSO and added to 10 ml PBS/2% FBS. The cells were stained with 20 μl of 5 μg/ml Fura-2 in PBS/2% FBS for 2 h, then 180 μl EGM-2 medium supplemented with CaCl2 and glucose was added (10 mM CaCl2 and 11.1 mM glucose final concentrations).
To prepare analogs for testing, 50 uM terlipressin (or derivative) stock solution in DMSO was prepared. […] (placed on ice after incubation).
To measure Ca-influx, Fura-2 fluorescence was measured for 4 repetitions per well at 340 nm ex/510 nm em and 420 nm ex/510 nm em (4 measurement before and 16 after injection of drug. At t=12 sec, 20 μl of terlipressin or derivative was injected as a 500 nM solution (or serum) for a final concentration of 50 nM per well. Fura-2 fluorescence was measured for […] per well at 340 nm ex/510 nm em and 420 nm ex/510 nm em (4 measurements before and 16 after injection of drug). The controls included injected human serum alone, and terlipressin or derivative dissolved in PBS as […]. All measurements were done in hexuplicate.
Data analysis was done using Graphpad Prism version 5.0 software (Graphpad software Inc, San Diego, Calif.). […]

Structure (SMILES)	solubility in water [1]	Activity of Various Vasopressin Analogs, 0 h [2]	Activity of Various Vasopressin Analogs, 1 h [2]	Activity of Various Vasopressin Analogs, 2 h [2]	Activity of Various Vasopressin Analogs, 4 h [2]	also measured
NCCCC[C@H](NC(=O)[C@@H]1CCCN1C(=O)[C@@H]1CSSC[C@H](NC(=O)CNC(=O)CNC(=O)CNC(=O)[C@H](Cc2c[nH]cn2)NC(=O)[C@H](Cc2c[nH]cn2)NC(=O)[C@H](Cc2c[nH]cn2)NC(=O)[C@H](Cc2c[nH]cn2)NC(=O)[C@H](Cc2c[nH]cn2)NC(=O)[C@@H](N)Cc2c[nH]cn2)C(=O)N[C@@H](Cc2ccc(O)cc2)C(=O)N[C@@H](Cc2ccccc2)C(=O)N[C@@H](CCC(N)=O)C(=O)N[C@@H](CC(N)=O)C(=O)N1)C(=O)NCC(N)=O [His6Ter, His-His-His-His-His-His-Gly-Gly-Gly-Cys-Tyr-Phe-Gln-Asn-Cys-Pro-Lys-Gly-NH2] (H-HHHHHHGGGCYFQNCPKG-NH2; disulfide 10-15)	water soluble					loss of paleness after (rat ear model): 6 h
CCCCCCCCCCCC(=O)OC(C)C(=O)NCC(=O)NCC(=O)NCC(=O)N[C@H]1CSSC[C@@H](C(=O)N2CCC[C@H]2C(=O)N[C@@H](CCCCN)C(=O)NCC(N)=O)NC(=O)[C@H](CC(N)=O)NC(=O)[C@H](CCC(N)=O)NC(=O)[C@H](Cc2ccccc2)NC(=O)[C@H](Cc2ccc(O)cc2)NC1=O (stereo partly drawn) [C12TerE, CH3(CH2)10CO—OHC(CH3)CO-Gly-Gly-Gly-Cys-Tyr-Phe-Gln-Asn-Cys-Pro-Lys-Gly-NH2] (Lauroyl-[ξLac]GGGCYFQNCPKG-NH2; disulfide 5-10)	limited solubility in water	+++	+	−	−	
CCCCCCCC(=O)NCC(=O)NCC(=O)NCC(=O)N[C@H]1CSSC[C@@H](C(=O)N2CCC[C@H]2C(=O)N[C@@H](CCCCN)C(=O)NCC(N)=O)NC(=O)[C@H](CC(N)=O)NC(=O)[C@H](CCC(N)=O)NC(=O)[C@H](Cc2ccccc2)NC(=O)[C@H](Cc2ccc(O)cc2)NC1=O [C8TerA, CH3(CH2)6CO-Gly-Gly-Gly-Cys-Tyr-Phe-Gln-Asn-Cys-Pro-Lys-Gly-NH2] (Octanoyl-GGGCYFQNCPKG-NH2; disulfide 4-9)	water soluble	+++	+++	+++	+++	
NCCCC[C@H](NC(=O)[C@@H]1CCCN1C(=O)[C@@H]1CSSC[C@H](NC(=O)CNC(=O)CNC(=O)CN)C(=O)N[C@@H](Cc2ccc(O)cc2)C(=O)N[C@@H](Cc2ccccc2)C(=O)N[C@@H](CCC(N)=O)C(=O)N[C@@H](CC(N)=O)C(=O)N1)C(=O)NCC(N)=O [Terlipressin, reference compound] (H-GGGCYFQNCPKG-NH2; disulfide 4-9)		+++	+	−	−	course of activity on incubation in human serum [2]: loses its activity quickly; course of activity on incubation in human serum ([2]; listed as terlipressin): losses activity immediately afterwards; ear colour at 6 h (rat ear model; subcutaneous injection into the back, 6 h): pale; ear colour at 24 h (rat ear model; subcutaneous injection into the back, 24 h): returned to a baseline color; loss of paleness after (rat ear model): 6 h
NCCCC[C@H](NC(=O)[C@@H]1CCCN1C(=O)[C@@H]1CSSC[C@H](NC(=O)CNC(=O)CNC(=O)CNC(=O)[C@H](Cc2c[nH]cn2)NC(=O)[C@H](Cc2c[nH]cn2)NC(=O)[C@@H](N)Cc2c[nH]cn2)C(=O)N[C@@H](Cc2ccc(O)cc2)C(=O)N[C@@H](Cc2ccccc2)C(=O)N[C@@H](CCC(N)=O)C(=O)N[C@@H](CC(N)=O)C(=O)N1)C(=O)NCC(N)=O [His3Ter, His-His-His-Gly-Gly-Gly-Cys-Tyr-Phe-Gln-Asn-Cys-Pro-Lys-Gly-NH2] (H-HHHGGGCYFQNCPKG-NH2; disulfide 7-12)	water soluble					
CCCCCCCC(=O)OC(C)C(=O)NCC(=O)NCC(=O)NCC(=O)N[C@H]1CSSC[C@@H](C(=O)N2CCC[C@H]2C(=O)N[C@@H](CCCCN)C(=O)NCC(N)=O)NC(=O)[C@H](CC(N)=O)NC(=O)[C@H](CCC(N)=O)NC(=O)[C@H](Cc2ccccc2)NC(=O)[C@H](Cc2ccc(O)cc2)NC1=O (stereo partly drawn) [C8TerE, CH3(CH2)6CO—OHC(CH3)CO-Gly-Gly-Gly-Cys-Tyr-Phe-Gln-Asn-Cys-Pro-Lys-Gly-NH2] (Octanoyl-[ξLac]GGGCYFQNCPKG-NH2; disulfide 5-10)	water soluble					
N=C(N)NCCC[C@H](NC(=O)[C@@H]1CCCN1C(=O)[C@@H]1CSSC[C@H](NC(=O)CNC(=O)CNC(=O)CNC(=O)[C@H](Cc2c[nH]cn2)NC(=O)[C@H](Cc2c[nH]cn2)NC(=O)[C@H](Cc2c[nH]cn2)NC(=O)[C@H](Cc2c[nH]cn2)NC(=O)[C@H](Cc2c[nH]cn2)NC(=O)[C@@H](N)Cc2c[nH]cn2)C(=O)N[C@@H](Cc2ccc(O)cc2)C(=O)N[C@@H](Cc2ccccc2)C(=O)N[C@@H](CCC(N)=O)C(=O)N[C@@H](CC(N)=O)C(=O)N1)C(=O)NCC(N)=O [His6Vas, His-His-His-His-His-His-Gly-Gly-Gly-Cys-Tyr-Phe-Gln-Asn-Cys-Pro-Arg-Gly-NH2] (H-HHHHHHGGGCYFQNCPRG-NH2; disulfide 10-15)	water soluble					
N=C(N)NCCC[C@H](NC(=O)[C@@H]1CCCN1C(=O)[C@@H]1CSSC[C@H](NC(=O)CNC(=O)CNC(=O)CNC(=O)[C@H](Cc2c[nH]cn2)NC(=O)[C@H](Cc2c[nH]cn2)NC(=O)[C@@H](N)Cc2c[nH]cn2)C(=O)N[C@@H](Cc2ccc(O)cc2)C(=O)N[C@@H](Cc2ccccc2)C(=O)N[C@@H](CCC(N)=O)C(=O)N[C@@H](CC(N)=O)C(=O)N1)C(=O)NCC(N)=O [His3Vas, His-His-His-Gly-Gly-Gly-Cys-Tyr-Phe-Gln-Asn-Cys-Pro-Arg-Gly-NH2] (H-HHHGGGCYFQNCPRG-NH2; disulfide 7-12)	water soluble					

From US8518876B2, “Composition for long-acting peptide analogs” (Pharmaln Corporation, priority 2007, dated 2013)
